From ChEMBL document CHEMBL3885881, “DrugMatrix”

Species: Rattus norvegicus
Assay: DrugMatrix - Regimen: Daily Repeat
Assay type: toxicity, organism-based, Sprague-Dawley
Design: regimen Daily Repeat, gender Male, age 6-8 weeks
Details: in vivo, po, route oral GAVAGE, vehicle 100 % WATER; for BASOPHIL / EOSINOPHIL / ERYTHROCYTE COUNT / HEMATOCRIT / HEMOGLOBIN / LEUKOCYTE COUNT / LYMPHOCYTE / MEAN CORPUSCULAR HEMOGLOBIN / MEAN CORPUSCULAR HEMOGLOBIN CONCENTRATION / MEAN CORPUSCULAR VOLUME / MONOCYTE / NEUTROPHIL / PLATELET COUNT: tissue Blood; for ALANINE AMINOTRANSFERASE / ALBUMIN / ALKALINE PHOSPHATASE / ASPARTATE AMINOTRANSFERASE / BLOOD UREA NITROGEN / CHLORIDE / CHOLESTEROL / CREATINE PHOSPHOKINASE / CREATININE / GLUCOSE / PHOSPHORUS / POTASSIUM / SODIUM / TOTAL BILIRUBIN / TOTAL PROTEIN: tissue Plasma
[1] = 0 mg/kg, 72 h, dose level Control, time 3 day
[2] = 0 mg/kg, 120 h, dose level Control, time 5 day
[3] = 8 mg/kg, 72 h, dose level Low, time 3 day
[4] = 8 mg/kg, 120 h, dose level Low, time 5 day
[5] = 29 mg/kg, 72 h, dose level High, time 3 day
[6] = 29 mg/kg, 120 h, dose level High, time 5 day

CCN[C@@H](C)Cc1cccc(C(F)(F)F)c1 [DEXFENFLURAMINE]
BASOPHIL [1]: 0%
EOSINOPHIL [1]: 0.5%
ERYTHROCYTE COUNT [1]: 5.8 x10E6/uL
HEMATOCRIT [1]: 35.07%
HEMOGLOBIN [1]: 14.12 G/DL
LEUKOCYTE COUNT [1]: 13.7 x10E3/uL
LYMPHOCYTE [1]: 82.33%
MEAN CORPUSCULAR HEMOGLOBIN [1]: 24.38 pg
MEAN CORPUSCULAR HEMOGLOBIN CONCENTRATION [1]: 40.28 G/DL
MEAN CORPUSCULAR VOLUME [1]: 60.52 fL
MONOCYTE [1]: 2.67%
NEUTROPHIL [1]: 14.5%
PLATELET COUNT [1]: 911.5 x10E3/uL
ALANINE AMINOTRANSFERASE [1]: 36.83 u/L
ALBUMIN [1]: 3.75 G/DL
ALKALINE PHOSPHATASE [1]: 399.83 u/L
ASPARTATE AMINOTRANSFERASE [1]: 66 u/L
BLOOD UREA NITROGEN [1]: 14.67 mg/dL
CHLORIDE [1]: 101.67 MEQ/L
CHOLESTEROL [1]: 66.33 mg/dL
CREATINE PHOSPHOKINASE [1]: 139.5 u/L
CREATININE [1]: 0.92 mg/dL
GLUCOSE [1]: 175 mg/dL
PHOSPHORUS [1]: 11.42 mg/dL
POTASSIUM [1]: 7.03 MEQ/L
SODIUM [1]: 148.5 MEQ/L
TOTAL BILIRUBIN [1]: 1.13 mg/dL
TOTAL PROTEIN [1]: 6.87 G/DL
BASOPHIL [2]: 0%
EOSINOPHIL [2]: 0.2%
ERYTHROCYTE COUNT [2]: 6.02 x10E6/uL
HEMATOCRIT [2]: 36.48%
HEMOGLOBIN [2]: 14.38 G/DL
LEUKOCYTE COUNT [2]: 12.34 x10E3/uL
LYMPHOCYTE [2]: 83%
MEAN CORPUSCULAR HEMOGLOBIN [2]: 23.92 pg
MEAN CORPUSCULAR HEMOGLOBIN CONCENTRATION [2]: 39.44 G/DL
MEAN CORPUSCULAR VOLUME [2]: 60.66 fL
MONOCYTE [2]: 3%
NEUTROPHIL [2]: 13.8%
PLATELET COUNT [2]: 1190.6 x10E3/uL
ALANINE AMINOTRANSFERASE [2]: 43 u/L
ALBUMIN [2]: 3.73 G/DL
ALKALINE PHOSPHATASE [2]: 393 u/L
ASPARTATE AMINOTRANSFERASE [2]: 62.33 u/L
BLOOD UREA NITROGEN [2]: 16.33 mg/dL
CHLORIDE [2]: 101.67 MEQ/L
CHOLESTEROL [2]: 65.5 mg/dL
CREATINE PHOSPHOKINASE [2]: 130.67 u/L
CREATININE [2]: 0.58 mg/dL
GLUCOSE [2]: 180.67 mg/dL
PHOSPHORUS [2]: 11.28 mg/dL
POTASSIUM [2]: 7.05 MEQ/L
SODIUM [2]: 148.17 MEQ/L
TOTAL BILIRUBIN [2]: 0.72 mg/dL
TOTAL PROTEIN [2]: 6.83 G/DL
BASOPHIL [3]: 0%
EOSINOPHIL [3]: 0%
ERYTHROCYTE COUNT [3]: 5.97 x10E6/uL
HEMATOCRIT [3]: 35.8%
HEMOGLOBIN [3]: 14.33 G/DL
LEUKOCYTE COUNT [3]: 8.6 x10E3/uL
LYMPHOCYTE [3]: 86.33%
MEAN CORPUSCULAR HEMOGLOBIN [3]: 24.03 pg
MEAN CORPUSCULAR HEMOGLOBIN CONCENTRATION [3]: 40.07 G/DL
MEAN CORPUSCULAR VOLUME [3]: 60 fL
MONOCYTE [3]: 3.67%
NEUTROPHIL [3]: 10%
PLATELET COUNT [3]: 1151 x10E3/uL
ALANINE AMINOTRANSFERASE [3]: 34.67 u/L
ALBUMIN [3]: 3.8 G/DL
ALKALINE PHOSPHATASE [3]: 406.67 u/L
ASPARTATE AMINOTRANSFERASE [3]: 62.67 u/L
BLOOD UREA NITROGEN [3]: 16 mg/dL
CHLORIDE [3]: 100.33 MEQ/L
CHOLESTEROL [3]: 70 mg/dL
CREATINE PHOSPHOKINASE [3]: 167.33 u/L
CREATININE [3]: 0.77 mg/dL
GLUCOSE [3]: 174 mg/dL
PHOSPHORUS [3]: 11.97 mg/dL
POTASSIUM [3]: 6.93 MEQ/L
SODIUM [3]: 148.67 MEQ/L
TOTAL BILIRUBIN [3]: 0.67 mg/dL
TOTAL PROTEIN [3]: 6.7 G/DL
BASOPHIL [4]: 0%
EOSINOPHIL [4]: 0%
ERYTHROCYTE COUNT [4]: 6.17 x10E6/uL
HEMATOCRIT [4]: 36.97%
HEMOGLOBIN [4]: 14.47 G/DL
LEUKOCYTE COUNT [4]: 12.77 x10E3/uL
LYMPHOCYTE [4]: 91.67%
MEAN CORPUSCULAR HEMOGLOBIN [4]: 23.5 pg
MEAN CORPUSCULAR HEMOGLOBIN CONCENTRATION [4]: 39.13 G/DL
MEAN CORPUSCULAR VOLUME [4]: 60 fL
MONOCYTE [4]: 1.67%
NEUTROPHIL [4]: 6.67%
PLATELET COUNT [4]: 1202.33 x10E3/uL
ALANINE AMINOTRANSFERASE [4]: 37 u/L
ALBUMIN [4]: 3.83 G/DL
ALKALINE PHOSPHATASE [4]: 391.67 u/L
ASPARTATE AMINOTRANSFERASE [4]: 62.67 u/L
BLOOD UREA NITROGEN [4]: 14 mg/dL
CHLORIDE [4]: 102.67 MEQ/L
CHOLESTEROL [4]: 62.67 mg/dL
CREATINE PHOSPHOKINASE [4]: 107 u/L
CREATININE [4]: 0.6 mg/dL
GLUCOSE [4]: 196.67 mg/dL
PHOSPHORUS [4]: 12.6 mg/dL
POTASSIUM [4]: 7.37 MEQ/L
SODIUM [4]: 148.67 MEQ/L
TOTAL BILIRUBIN [4]: 0.53 mg/dL
TOTAL PROTEIN [4]: 7 G/DL
BASOPHIL [5]: 0%
EOSINOPHIL [5]: 0.33%
ERYTHROCYTE COUNT [5]: 6.47 x10E6/uL
HEMATOCRIT [5]: 37.87%
HEMOGLOBIN [5]: 15.5 G/DL
LEUKOCYTE COUNT [5]: 12.63 x10E3/uL
LYMPHOCYTE [5]: 88%
MEAN CORPUSCULAR HEMOGLOBIN [5]: 24.03 pg
MEAN CORPUSCULAR HEMOGLOBIN CONCENTRATION [5]: 41 G/DL
MEAN CORPUSCULAR VOLUME [5]: 58.6 fL
MONOCYTE [5]: 2%
NEUTROPHIL [5]: 9.67%
PLATELET COUNT [5]: 1385.67 x10E3/uL
ALANINE AMINOTRANSFERASE [5]: 27 u/L
ALBUMIN [5]: 3.7 G/DL
ALKALINE PHOSPHATASE [5]: 285.67 u/L
ASPARTATE AMINOTRANSFERASE [5]: 55.33 u/L
BLOOD UREA NITROGEN [5]: 13 mg/dL
CHLORIDE [5]: 102 MEQ/L
CHOLESTEROL [5]: 63.67 mg/dL
CREATINE PHOSPHOKINASE [5]: 119.67 u/L
CREATININE [5]: 0.7 mg/dL
GLUCOSE [5]: 160 mg/dL
PHOSPHORUS [5]: 10.57 mg/dL
POTASSIUM [5]: 6.47 MEQ/L
SODIUM [5]: 151 MEQ/L
TOTAL BILIRUBIN [5]: 0.47 mg/dL
TOTAL PROTEIN [5]: 6.57 G/DL
BASOPHIL [6]: 0%
EOSINOPHIL [6]: 0%
ERYTHROCYTE COUNT [6]: 6.71 x10E6/uL
HEMATOCRIT [6]: 38.87%
HEMOGLOBIN [6]: 15.1 G/DL
LEUKOCYTE COUNT [6]: 11.3 x10E3/uL
LYMPHOCYTE [6]: 92.67%
MEAN CORPUSCULAR HEMOGLOBIN [6]: 22.53 pg
MEAN CORPUSCULAR HEMOGLOBIN CONCENTRATION [6]: 38.9 G/DL
MEAN CORPUSCULAR VOLUME [6]: 58 fL
MONOCYTE [6]: 1.67%
NEUTROPHIL [6]: 5.67%
PLATELET COUNT [6]: 1314.33 x10E3/uL
ALANINE AMINOTRANSFERASE [6]: 33.67 u/L
ALBUMIN [6]: 3.67 G/DL
ALKALINE PHOSPHATASE [6]: 333.67 u/L
ASPARTATE AMINOTRANSFERASE [6]: 57.67 u/L
BLOOD UREA NITROGEN [6]: 15 mg/dL
CHLORIDE [6]: 101 MEQ/L
CHOLESTEROL [6]: 66.67 mg/dL
CREATINE PHOSPHOKINASE [6]: 104.67 u/L
CREATININE [6]: 0.6 mg/dL
GLUCOSE [6]: 197.33 mg/dL
PHOSPHORUS [6]: 12.47 mg/dL
POTASSIUM [6]: 6.47 MEQ/L
SODIUM [6]: 149.67 MEQ/L
TOTAL BILIRUBIN [6]: 0.33 mg/dL
TOTAL PROTEIN [6]: 6.57 G/DL
